Test results: patent US7244847B2, “Benzimidazole compounds” (Isis Pharmaceuticals, Inc., priority 2002, dated 2007)
Values after ≈ are worked out from the molar mass of the structure shown. Read-outs that look alike come from different tables or passages of the source.

Experiments:
[1] = system: Bacterial Transcription/Translation; test: bacterial transcription/translation assay (pBestLuc luciferase, E. coli S30 extract); type: biochemical
Method: This series of assays is known to those of skill in the art, and other assays may be substituted therefore without deviating from the spirit and scope hereof. The DNA template, pBestLuc™ (Promega), is a plasmid containing a reporter gene for firefly luciferase fused to a strong tac promoter and ribosome binding site. Messenger RNA from 1 μg pBestLuc is transcribed and translated in E. coli S30 bacterial extract in the presence or absence of test compound. Compounds are tested in a black 96 well microtiter plate with an assay volume of 35 μL. […] The transcription/translation reaction is incubated for 35 minutes at 37° C. followed by detection of functional luciferase with the addition of 30 μL LucLite™ (Packard). Light output is quantitated on a Packard TopCount.

E. coli [2] = test: MIC assay of Example 20, E. coli; type: cell-based; conditions: Tables 4-7
Method: (§1) The assays are carried out in 150 μL volume in duplicate in 96-well clear flat-bottom bottom plates. The bacterial suspension from an overnight culture growth in appropriate medium is added to a solution of test compound in 4% DMSO in water. Final bacterial inoculum is approximately 10^5-10^6 CFU/well. The percent growth of the bacteria in test wells relative to that observed for a well containing no compound is determined by measuring absorbance at 595 nm (A595) after 24 h. The MIC is determined as a range of single compound where the complete inhibition of growth is observed at the higher concentration and cells are viable at the lower concentrations. Both ampicillin and tetracycline are used as antibiotic-positive controls in each screening assay for S. pyogenes, E. coli, S. aureus, E. faecalis, K. pneumoniae and P. vulgaris; . Ciprofloxacin is used as an antibiotic positive control in each screening assay for P. aeruginosa.

S. aureus [3] = test: MIC assay of Example 20, S. aureus; type: cell-based; conditions: Tables 4-7
Method: as §1

Ag IIa HCV IRES Target = test: MASS screening against Ag IIa HCV IRES target; type: binding; conditions: target conc. […], ligand conc. 50 μM; for Selectivity: by mass spectral analysis
Method: A series of 2-aminobenzimidazole dimers were synthesized according to the procedure described in Example 11. A series of 5- and 6-substituted-2-aminobenzimidazoles also were synthesized, and all were evaluated for biological activity. Tables 4-7 report MIC and transcription/translation activity for the dimer compounds By the outlined procedure. Tables 8 and 9 report the MASS screening of 2-aminobenzimidazoles against the AgIIa HCV-IRES target. The reported selectivity was determined by mass spectral analysis of any associations and provides information about the relative binding affinities.

S. aureus [4] = test: in vitro antibacterial activity (MIC) against S. aureus; type: cell-based; conditions: Staphylococcus aureus; Tables 1 and 2
Method: (§2) Compounds were evaluated for in vitro antibacterial activity (referred to MIC, the minimum concentration inhibiting fungal cell growth) against S. aureus and E. coli. […] The assays are carried out in 150 mL volume in duplicate in 96-well clear flat-bottom plates. […] Final bacterial or yeast inoculum is approximately 10^2-10^3 CFU/well. […] (bacteria) or 40-48 hours (yeast) at 25° C. The MIC is determined as a range of concentration where complete inhibition of growth is observed at the higher concentration and bacterial/yeast cells are viable at the lower concentration. Ampicillin and tetracycline are used as antibiotic positive controls for bacterial MIC assays.
(§3) The assays are carried out in 150 μL volume in duplicate in 96-well clear flat-bottom plates. […] Final bacterial or yeast inoculum is approximately 10^2-10^3 CFU/well. […] (bacteria) or 40-48 hours (yeast) at 25° C. The MIC is determined as a range of concentration where complete inhibition of growth is observed at the higher concentration and bacterial/yeast cells are viable at the lower concentration. Ampicillin and tetracycline are used as antibiotic positive controls for bacterial MIC assays.

E. coli [5] = test: in vitro antibacterial activity (MIC) against E. coli; type: cell-based; conditions: Escherichia coli; Tables 1 and 2
Method: as §2, §3

E. coli 16S A-site [6] = test: MS-based assay of binding affinity for 16S RNA A-site
Source text: It has been established that the 16S A-site is involved in bacterial translation, and the aminoglycosides are known to bind to the region. Thus, the bacterial 16S A-site represents a prime target for discovering antibacterial agents, and much work has focused on the modification of the natural aminoglycosides. […] These are shown below in Scheme 17. [drawing 31]
The synthesis of compound 1 and piperidine-modified benzimidazoles are shown above in Scheme 17.
A series of benzimidazole-modified analogs were prepared as shown above. The procedure required the simple heating of a suitable 1,2-dianiline (8) with isonipecotic acid (9) in the presence of polyphosphoric acid.

E. coli 16S A-site [7] = test: MS-based competition experiments to determine the binding location; conditions: competition of 1 with glucosamine
Source text: MS-based competition experiments were used to determine the binding location of 1 to the target RNA. Glucosamine is the A-ring of paromomycin that is known to bind to the target RNA and inhibits bacterial translation.

[8] = Tables 4-7, read-out: Transcription/Translation, IC50

CN(CCCn1c(N)nc2ccccc21)CCCn1c(N)nc2ccccc21
IC50 [1, 8]: 25 µM
MIC (E. coli [2]; Escherichia coli): 25 to 50 µM (≈ 9.44 to 18.9 µg/mL)
MIC (S. aureus [3]; Staphylococcus aureus): 75 to 100 µM (≈ 28.3 to 37.7 µg/mL)

CN(CCCn1c(N)nc2cc(Br)ccc21)CCCn1c(N)nc2cc(Br)ccc21
IC50 [1, 8]: > 100 µM
MIC (E. coli [2]; Escherichia coli): 25 to 50 µM (≈ 13.4 to 26.8 µg/mL)
MIC (S. aureus [3]; Staphylococcus aureus): 25 to 50 µM (≈ 13.4 to 26.8 µg/mL)

Cc1ccc2nc(N)n(CCCN(C)CCCn3c(N)nc4ccc(C)cc43)c2c1
IC50 [1, 8]: 6 to 12 µM
MIC (E. coli [2]; Escherichia coli): > 100 µM
MIC (S. aureus [3]; Staphylococcus aureus): > 100 µM

COC(=O)c1ccc2c(c1)nc(N)n2CCCN(C)CCCn1c(N)nc2cc(C(=O)OC)ccc21
IC50 [1, 8]: > 100 µM
MIC (E. coli [2]; Escherichia coli): > 200 µM
MIC (S. aureus [3]; Staphylococcus aureus): > 200 µM

CN(CCCn1c(N)nc2cc(C(F)(F)F)ccc21)CCCn1c(N)nc2cc(C(F)(F)F)ccc21
IC50 [1, 8]: > 100 µM
MIC (E. coli [2]; Escherichia coli): 25 to 50 µM (≈ 12.8 to 25.7 µg/mL)
MIC (S. aureus [3]; Staphylococcus aureus): 50 to 100 µM (≈ 25.7 to 51.3 µg/mL)

CN(CCCn1c(N)nc2cc(C#N)ccc21)CCCn1c(N)nc2cc(C#N)ccc21
IC50 [1, 8]: > 200 µM
MIC (E. coli [2]; Escherichia coli): > 200 µM
MIC (S. aureus [3]; Staphylococcus aureus): > 200 µM

CN(C)CCCn1c(N)nc2cc(CN)ccc21 [CH2NH2]
% Complex (Ag IIa HCV IRES Target): 109%
% Dimer (Ag IIa HCV IRES Target): 80%
Selectivity (Ag IIa HCV IRES Target): 2.3

Cc1ccc2nc(N)n(CCCN(C)C)c2c1 [CH3]
% Complex (Ag IIa HCV IRES Target): 136%
% Dimer (Ag IIa HCV IRES Target): 31%
Selectivity (Ag IIa HCV IRES Target): 6.55

CC(C)(C)OC(=O)N1CCC(c2nc3cc(Cl)c(Cl)cc3n2Cc2ccc(CBr)cc2)CC1 [Compound 4g]
MIC (S. aureus [4]): 52 µM (≈ 28.8 µg/mL)
MIC (E. coli [5]): > 100 µM
IC50 ([1]; Tables 1 and 2, bacterial transcription/translation, read-out: T/T IC50 MIC): > 100 µM

CC(=O)N1CCC(c2nc3cc([N+](=O)[O-])ccc3[nH]2)CC1 [Compound 7a]
binding affinity for 16S RNA A-site, in words (E. coli 16S A-site [6]): diminished the binding affinity

Cc1ccc2[nH]c(C3CCNCC3)nc2c1 [Compound 10b]
binding affinity for 16S RNA A-site, in words (E. coli 16S A-site [6]): tolerated

Clc1ccc2[nH]c(C3CCNCC3)nc2c1 [Compound 10d]
binding affinity for 16S RNA A-site, in words (E. coli 16S A-site [6]): tolerated

c1cnc2nc(C3CCNCC3)[nH]c2c1 [Compound 10j]
binding affinity for 16S RNA A-site, in words (E. coli 16S A-site [6]): reduced activities

CN(C)CCCn1c(N)nc2ccccc21 [H]
% Complex (Ag IIa HCV IRES Target): 125%
% Dimer (Ag IIa HCV IRES Target): 35%
Selectivity (Ag IIa HCV IRES Target): 4.30

CN(C)CCCOc1ccc2nc(N)n(CCCN(C)C)c2c1 [O(CH2)3N(CH3)2]
% Complex (Ag IIa HCV IRES Target): 862%
% Dimer (Ag IIa HCV IRES Target): 72%
Selectivity (Ag IIa HCV IRES Target): 96.88

COc1ccc2nc(N)n(CCCN(C)C)c2c1 [OCH3]
% Complex (Ag IIa HCV IRES Target): 286%
% Dimer (Ag IIa HCV IRES Target): 39%
Selectivity (Ag IIa HCV IRES Target): 10.67

CN(CCn1c(N)nc2cc(Cl)c(Cl)cc21)CCn1c(N)nc2cc(Cl)c(Cl)cc21 [X = Cl]
IC50 [1, 8]: > 100 µM
MIC (E. coli [2]): >100 µM
MIC (S. aureus [3]): >100 µM

CN(CCn1c(N)nc2ccccc21)CCn1c(N)nc2ccccc21 [X = H]
IC50 [1, 8]: > 100 µM
MIC (E. coli [2]): >100 µM
MIC (S. aureus [3]): >100 µM

CN(CCCn1c(N)nc2cc(Cl)c(Cl)cc21)CCCn1c(N)nc2cc(Cl)c(Cl)cc21 [X = N—Me]
IC50 [1, 8]: 25 µM
MIC, E. coli (E. coli [2]): 25 to 50 µM
MIC, S. aureus (S. aureus [3]): 75 to 100 µM

CN(CCCn1c(N)nc2cc(Cl)c(Cl)cc21)CCCn1c(N)nc2cc(Cl)c(Cl)cc21 [drawing 35]
IC50 [1, 8]: > 100 µM
MIC (E. coli [2]; Escherichia coli): 12 to 25 µM (≈ 6.18 to 12.9 µg/mL)
MIC (S. aureus [3]; Staphylococcus aureus): 12 to 25 µM (≈ 6.18 to 12.9 µg/mL)

CN(C)CCCn1c(N)nc2ccccc21 [drawing 42]
IC50 [1, 8]: > 100 µM
MIC (E. coli [2]; Escherichia coli): > 50 µM
MIC (S. aureus [3]; Staphylococcus aureus): > 50 µM

N[C@H]1C(O)O[C@H](CO)[C@@H](O)[C@@H]1O (some centres unmarked) [glucosamine]
binding site on the target RNA (competition), in words (E. coli 16S A-site [7]): compete for the same binding site
